Source: PubChem BioAssay AID248 (DTP/NCI, 2004)
Several values for one entry are separate records, joined by “and”; a condition that tells them apart may be missing. Identical values can stand only once. Toxic doses and inconclusive results are not listed.

System: L1210 leukemia ip in BDF1 mice, survival T/C
Test: NCI In Vivo Anticancer Drug Screen. Data for tumor model L1210 Leukemia (intraperitoneal) in B6D2F1 (BDF1) mice
Conditions: endpoint: mean survival time, higher = longer survival
In short: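 Tumor cells were implanted, animals were treated, and survival was followed. The result divides the treated measurement by the vehicle-control measurement.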

[1] = dose: 100.0 mg/kg/injection, schedule: Q04DX002 (ip), vehicle: Klucel (hydroxypropylcellulose) (HPC)
[2] = dose: 200.0 mg/kg/injection, schedule: Q04DX002 (ip), vehicle: Klucel (hydroxypropylcellulose) (HPC)
[3] = dose: 400.0 mg/kg/injection, schedule: Q04DX002 (ip), vehicle: Klucel (hydroxypropylcellulose) (HPC)
[4] = dose: 100.0 mg/kg/injection, schedule: Q01DX001 (ip), vehicle: carboxymethylcellulose (CMC)
[5] = dose: 200.0 mg/kg/injection, schedule: Q01DX001 (ip), vehicle: carboxymethylcellulose (CMC)
[6] = dose: 400.0 mg/kg/injection, schedule: Q01DX001 (ip), vehicle: carboxymethylcellulose (CMC)
[7] = dose: 100.0 mg/kg/injection, schedule: Q01DX001 (ip), vehicle: Klucel (hydroxypropylcellulose) (HPC)
[8] = dose: 200.0 mg/kg/injection, schedule: Q01DX001 (ip), vehicle: Klucel (hydroxypropylcellulose) (HPC)
[9] = dose: 400.0 mg/kg/injection, schedule: Q01DX001 (ip), vehicle: Klucel (hydroxypropylcellulose) (HPC)

With `COC(CBr)OC` the T/C (dose: 10.0 mg/kg/injection, schedule: Q01DX009 (ip), vehicle: saline) was 95 % of control, the T/C (dose: 10.0 mg/kg/injection, schedule: Q04DX003 (ip), vehicle: saline) was 98 % of control and the T/C (dose: 20.0 mg/kg/injection, schedule: Q01DX009 (ip), vehicle: saline) was 95 % of control. The T/C (dose: 20.0 mg/kg/injection, schedule: Q04DX003 (ip), vehicle: saline) was 101 % of control, the T/C (dose: 25.0 mg/kg/injection, schedule: Q04DX003 (ip), vehicle: saline with Tween-80) was 98 % of control and the T/C (dose: 40.0 mg/kg/injection, schedule: Q01DX009 (ip), vehicle: saline) was 104 % of control. The T/C (dose: 40.0 mg/kg/injection, schedule: Q04DX003 (ip), vehicle: saline) was 108 % of control and the T/C (dose: 50.0 mg/kg/injection, schedule: Q04DX003 (ip), vehicle: saline with Tween-80) was 98 % of control.
For `CC1Cc2ccccc2C2=C3CC=CCC3C3C(=O)OC(=O)C3C21` (stereo unspecified), the T/C (dose: 75.0 mg/kg/injection, schedule: Q01DX001 (ip), vehicle: carboxymethylcellulose (CMC)) was 89 % of control, the T/C (dose: 150.0 mg/kg/injection, schedule: Q01DX001 (ip), vehicle: carboxymethylcellulose (CMC)) was 94 % of control and the T/C (dose: 300.0 mg/kg/injection, schedule: Q01DX001 (ip), vehicle: carboxymethylcellulose (CMC)) was 90 % of control.
`FC1(F)SC2CC/C=C\CCC2C1(F)F` (stereo unspecified) was tested, and the T/C (dose: 0.75 mg/kg/injection, schedule: Q04DX003 (ip), vehicle: Klucel (hydroxypropylcellulose) (HPC)) was 90 % of control, the T/C (dose: 1.5 mg/kg/injection, schedule: Q01DX009 (ip), vehicle: Klucel (hydroxypropylcellulose) (HPC)) was 96 % of control and the T/C (dose: 1.5 mg/kg/injection, schedule: Q04DX003 (ip), vehicle: Klucel (hydroxypropylcellulose) (HPC)) was 98 % of control. The T/C (dose: 3.0 mg/kg/injection, schedule: Q01DX009 (ip), vehicle: Klucel (hydroxypropylcellulose) (HPC)) was 102 % of control, the T/C (dose: 3.0 mg/kg/injection, schedule: Q04DX003 (ip), vehicle: Klucel (hydroxypropylcellulose) (HPC)) was 102 % of control and the T/C (dose: 3.12 mg/kg/injection, schedule: Q04DX003 (ip), vehicle: Klucel (hydroxypropylcellulose) (HPC)) was 86 % of control. The T/C (dose: 12.0 mg/kg/injection, schedule: Q04DX003 (ip), vehicle: Klucel (hydroxypropylcellulose) (HPC)) was 88 % of control.
With `COC1OC2COC(c3ccccc3)OC2C(O)C1OC(=S)SSC(=S)OC1C(OC)OC2COC(c3ccccc3)OC2C1O` (stereo unspecified) the T/C (dose: 25.0 mg/kg/injection, schedule: Q04DX002 (ip), vehicle: Klucel (hydroxypropylcellulose) (HPC)) was 89 % of control, the T/C (dose: 50.0 mg/kg/injection, schedule: Q04DX002 (ip), vehicle: Klucel (hydroxypropylcellulose) (HPC)) was 104 % of control and the T/C [1] was 112 % of control.
In the case of `c1ccc2c(-c3c4ccccc4cc4ccccc34)c3ccccc3cc2c1`, the T/C [1] is reported as 91 % of control, the T/C [2] is reported as 105 % of control and the T/C [3] is reported as 91 % of control.
In the case of `COC(=O)C(N)=O`, the T/C (dose: 100.0 mg/kg/injection, schedule: Q01DX001 (ip), vehicle: steriod suspending solution) is reported as 115 % of control, the T/C [1] is reported as 100 % of control and the T/C (dose: 200.0 mg/kg/injection, schedule: Q01DX001 (ip), vehicle: steriod suspending solution) is reported as 121 % of control. For the same compound, the T/C [2] was 106 % of control, the T/C (dose: 400.0 mg/kg/injection, schedule: Q01DX001 (ip), vehicle: steriod suspending solution) was 106 % of control and the T/C [3] was 106 % of control.
`CCCCCCC(C)O[Si](C)c1ccc(-c2ccccc2)cc1` (stereo unspecified) was tested, and the T/C (dose: 100.0 mg/kg/injection, schedule: Q01DX009 (ip), vehicle: saline with Tween-80) was 100 % of control, the T/C (dose: 100.0 mg/kg/injection, schedule: Q04DX003 (ip), vehicle: saline with Tween-80) was 93 % of control and the T/C (dose: 200.0 mg/kg/injection, schedule: Q01DX009 (ip), vehicle: saline with Tween-80) was 105 % of control. The T/C (dose: 200.0 mg/kg/injection, schedule: Q04DX003 (ip), vehicle: saline with Tween-80) was 94 % of control, the T/C (dose: 400.0 mg/kg/injection, schedule: Q01DX009 (ip), vehicle: saline with Tween-80) was 102 % of control and the T/C (dose: 400.0 mg/kg/injection, schedule: Q04DX003 (ip), vehicle: saline with Tween-80) was 100 % of control.
`O=C1NC(=O)C2(CCN(c3ccccc3)CC2)C(=O)N1` was tested, and the T/C (dose: 100.0 mg/kg/injection, schedule: Q01DX001 (ip), vehicle: saline) was 94 % of control, the T/C (dose: 200.0 mg/kg/injection, schedule: Q01DX001 (ip), vehicle: saline) was 96 % of control and the T/C (dose: 400.0 mg/kg/injection, schedule: Q01DX001 (ip), vehicle: saline) was 96 % of control.
In the case of `CCOC(OCC)C(=O)OCC(=O)[C@]1(O)Cc2c(O)c3c(c(O)c2[C@@H](OC2CC(N)C(O)C(C)O2)C1)C(=O)c1c(OC)cccc1C3=O` (stereo partly specified), the T/C (dose: 0.25 mg/kg/injection, schedule: Q01DX009 (ip), vehicle: saline) is reported as 118 % of control, the T/C (dose: 2.0 mg/kg/injection, schedule: Q01DX009 (ip), vehicle: saline) is reported as 182 % of control and the T/C (dose: 4.0 mg/kg/injection, schedule: Q01DX009 (ip), vehicle: saline) is reported as 90 % of control.
`O=C(O)C1(O)c2cc(Br)ccc2-c2ccc(Br)cc21` was tested, and the T/C (dose: 50.0 mg/kg/injection, schedule: Q01DX001 (ip), vehicle: carboxymethylcellulose (CMC)) was 100 % of control, the T/C [4] was 97 % of control and the T/C [5] was 100 % of control. The T/C [6] was 92 % of control.
`O=c1c2[nH]cnc2ncn1Cc1ccccc1` was tested, and the T/C [7] was 102 % of control, the T/C [8] was 98 % of control and the T/C [9] was 109 % of control.
For `Cc1ccc2nn(-c3ccc(O)cc3)[n+]([O-])c2c1`, the T/C [4] was 102 % of control, the T/C [5] was 107 % of control and the T/C [6] was 93 % of control.
`CC(=O)NS(=O)(=O)c1ccc(C)cc1` was tested, and the T/C (dose: 100.0 mg/kg/injection, schedule: Q04DX003 (ip), vehicle: acetone) was 115 % of control, the T/C (dose: 200.0 mg/kg/injection, schedule: Q04DX003 (ip), vehicle: acetone) was 108 % of control and the T/C (dose: 400.0 mg/kg/injection, schedule: Q04DX003 (ip), vehicle: acetone) was 97 % of control.
In the case of `COC(CBr)c1ccccc1` (stereo unspecified), the T/C (dose: 12.5 mg/kg/injection, schedule: Q04DX003 (ip), vehicle: Klucel (hydroxypropylcellulose) (HPC)) is reported as 98 % of control, the T/C (dose: 25.0 mg/kg/injection, schedule: Q01DX009 (ip), vehicle: saline) is reported as 108 % of control and the T/C (dose: 25.0 mg/kg/injection, schedule: Q04DX003 (ip), vehicle: Klucel (hydroxypropylcellulose) (HPC)) is reported as 101 % of control. The T/C (dose: 50.0 mg/kg/injection, schedule: Q01DX009 (ip), vehicle: saline) was 98 % of control, the T/C (dose: 50.0 mg/kg/injection, schedule: Q04DX003 (ip), vehicle: Klucel (hydroxypropylcellulose) (HPC)) was 96 % of control and the T/C (dose: 100.0 mg/kg/injection, schedule: Q01DX009 (ip), vehicle: saline) was 95 % of control.
In the case of `O=C1NC(=O)C(CO)(c2ccccc2)N1` (stereo unspecified), the T/C (dose: 12.5 mg/kg/injection, schedule: Q04DX003 (ip), vehicle: saline) is reported as 110 % of control, the T/C (dose: 25.0 mg/kg/injection, schedule: Q04DX003 (ip), vehicle: saline) is reported as 103 % of control and the T/C (dose: 50.0 mg/kg/injection, schedule: Q04DX003 (ip), vehicle: saline) is reported as 100 % of control. The T/C (dose: 100.0 mg/kg/injection, schedule: Q04DX003 (ip), vehicle: saline) was 94 % of control, the T/C (dose: 200.0 mg/kg/injection, schedule: Q04DX003 (ip), vehicle: saline) was 97 % of control and the T/C (dose: 400.0 mg/kg/injection, schedule: Q04DX003 (ip), vehicle: saline) was 100 % of control.
With `CCCCCCCCOC(=O)CCC(N)C(=O)O` (stereo unspecified) the T/C [7] was 107 % of control, the T/C (dose: 100.0 mg/kg/injection, schedule: Q01DX009 (ip), vehicle: Klucel (hydroxypropylcellulose) (HPC)) was 93 % of control and the T/C [8] was 102 % of control. The T/C (dose: 200.0 mg/kg/injection, schedule: Q01DX009 (ip), vehicle: Klucel (hydroxypropylcellulose) (HPC)) was 97 % of control, the T/C [9] was 98 % of control and the T/C (dose: 400.0 mg/kg/injection, schedule: Q01DX009 (ip), vehicle: Klucel (hydroxypropylcellulose) (HPC)) was 97 % of control.
For `C/C=C/C=C/COC(=O)CCCCCC`, the T/C (dose: 100.0 mg/kg/injection, schedule: Q04DX002 (ip), vehicle: saline) was 98 % of control and 108 % of control, the T/C (dose: 200.0 mg/kg/injection, schedule: Q04DX002 (ip), vehicle: saline) was 108 % of control and 119 % of control and the T/C (dose: 400.0 mg/kg/injection, schedule: Q04DX002 (ip), vehicle: saline) was 107 % of control. For the same compound, the T/C (dose: 600.0 mg/kg/injection, schedule: Q04DX002 (ip), vehicle: saline) was 98 % of control.
For `C=CCC1(CCCC)C(=O)NC(=O)NC1=O`, the T/C (dose: 75.0 mg/kg/injection, schedule: Q01DX001 (ip), vehicle: saline) was 89 % of control and the T/C (dose: 150.0 mg/kg/injection, schedule: Q01DX001 (ip), vehicle: saline) was 105 % of control.
`CC(=O)CCNC1(c2ccccc2)CCCCC1` was tested, and the T/C [7] was 95 % of control and the T/C [8] was 95 % of control.
